Several values for one entry are separate records, joined by “and”; a condition that tells them apart may be missing. Equal values may be shown once.
Assay: mn = molality of the nth substance listed, in mol/kg
Details: 100 kPa, Liquid; for speed of sound: Frequency=3 MHz, Single path-length method; for mass density: Vibrating tube method

Nc1ccc(S(=O)(=O)Nc2nccs2)cc1 [N-(2-thiazolyl)sulfanilamide] + O
Details	mass density, 288.15 K	mass density, 293.15 K	mass density, 298.15 K	mass density, 303.15 K	mass density, 308.15 K	speed of sound, 288.15 K [m/s]	speed of sound, 293.15 K [m/s]	speed of sound, 298.15 K [m/s]	speed of sound, 303.15 K [m/s]	speed of sound, 308.15 K [m/s]
m1 = 0.001	999.21 kg/m3	998.28 kg/m3	997.13 kg/m3	995.71 kg/m3	994.08 kg/m3	1466.6	1482.9	1497.1	1509.6	1520.2
m1 = 0.005	999.71 kg/m3	998.79 kg/m3	997.61 kg/m3	996.18 kg/m3	994.54 kg/m3	1467.2	1483.5	1497.7	1510	1520.6
m1 = 0.01	1000.27 kg/m3 and 1000.33 kg/m3	999.36 kg/m3 and 999.41 kg/m3	998.19 kg/m3 and 998.23 kg/m3	996.81 kg/m3 and 996.77 kg/m3	995.18 kg/m3 and 995.14 kg/m3	1468.5	1484.5	1498.7	1510.7	1521.7

Reference: the NIST ThermoML archive (doi:10.1016/j.jct.2017.12.017)
